These results are taken from ChEMBL document CHEMBL2169824, “The many faces of the adamantyl group in drug design” (Eur J Med Chem, 2011).

The test system of one data set is Mus musculus. Nature of the data set: Anticonvulsant activity in mouse at 30 mg/kg. Format: functional.
The target in the next data set is Carbonic anhydrase 2 (Homo sapiens, UniProt P00918). Nature of the data set: Inhibition of human CA2.
For the next data set, the target named is T1, Vitamin D3 receptor (Homo sapiens, UniProt P11473).
T1 sequence (P11473 whole entry): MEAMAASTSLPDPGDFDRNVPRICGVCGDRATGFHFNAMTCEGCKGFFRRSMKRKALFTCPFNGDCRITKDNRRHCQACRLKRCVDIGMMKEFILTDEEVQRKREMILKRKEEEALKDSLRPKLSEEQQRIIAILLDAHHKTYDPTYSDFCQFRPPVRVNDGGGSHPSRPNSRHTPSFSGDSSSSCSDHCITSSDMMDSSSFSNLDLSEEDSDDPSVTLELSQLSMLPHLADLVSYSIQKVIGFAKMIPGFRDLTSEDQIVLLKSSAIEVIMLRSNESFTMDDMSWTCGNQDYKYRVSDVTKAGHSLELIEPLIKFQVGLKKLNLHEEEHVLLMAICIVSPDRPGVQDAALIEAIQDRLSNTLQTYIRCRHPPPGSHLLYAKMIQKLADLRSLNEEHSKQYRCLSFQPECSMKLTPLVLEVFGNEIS
Nature of the data set: Transactivation of VDR expressed in COS7 cells assessed as reduction in 1,25-dihydroxyvitamin D3-induced transcriptional activity by transient transcription assay. Format: cell-based, COS-7.

Data set [1] is described as follows: Half life in plasma. Format: ADME, cell-free.
Data set [2] can be described thus: Displacement of [125I]neurotensin from neurotensin receptor 1 in guinea pig brain. Also on record: species or system Cavia porcellus.
Data set [3] in a line: Inhibition of Beta-glucocerebrosidase G202R mutant in cell based assay.
The subject of data set [4] is T2, Lysosomal acid glucosylceramidase (Homo sapiens), P04062 [N409S].
T2 sequence (whole entry): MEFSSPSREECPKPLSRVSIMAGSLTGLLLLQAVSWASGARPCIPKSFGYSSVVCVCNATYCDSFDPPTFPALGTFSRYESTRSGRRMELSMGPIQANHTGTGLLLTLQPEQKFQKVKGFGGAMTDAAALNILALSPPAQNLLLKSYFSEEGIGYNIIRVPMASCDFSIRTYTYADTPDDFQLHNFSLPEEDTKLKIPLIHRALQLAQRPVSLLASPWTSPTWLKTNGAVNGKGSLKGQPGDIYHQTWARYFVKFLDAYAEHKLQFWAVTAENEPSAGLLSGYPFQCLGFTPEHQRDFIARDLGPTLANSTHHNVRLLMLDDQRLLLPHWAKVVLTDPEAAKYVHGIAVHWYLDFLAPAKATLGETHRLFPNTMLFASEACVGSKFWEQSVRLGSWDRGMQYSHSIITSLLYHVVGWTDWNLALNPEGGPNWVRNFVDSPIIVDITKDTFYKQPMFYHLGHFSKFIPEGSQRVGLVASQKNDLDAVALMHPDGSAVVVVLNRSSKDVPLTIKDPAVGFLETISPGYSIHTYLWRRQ
Nature of the data set: Inhibition of Beta-glucocerebrosidase N370S mutant in cell based assay.

The next data set deals with Enterococcus faecium. Nature of the data set: Antimicrobial activity against vancomycin-resistant Enterococcus faecium. The format is functional.
A further data set concerns Staphylococcus aureus. Nature of the data set: Antimicrobial activity against methicillin-resistant Staphylococcus aureus. Format: functional.
A short description of data set [5]: Drug excretion in human urine assessed as unchanged compound level. Conditions: read-out: Drug excretion. Format: ADME.
Data set [6] is described as follows: Inhibition of globotriaosyl ceramide binding to Escherichia coli Verotoxin 1.
Data set [7] addresses T3, Mediator of RNA polymerase II transcription subunit 23 (Homo sapiens, UniProt Q9ULK4).
T3 sequence (Q9ULK4 whole entry): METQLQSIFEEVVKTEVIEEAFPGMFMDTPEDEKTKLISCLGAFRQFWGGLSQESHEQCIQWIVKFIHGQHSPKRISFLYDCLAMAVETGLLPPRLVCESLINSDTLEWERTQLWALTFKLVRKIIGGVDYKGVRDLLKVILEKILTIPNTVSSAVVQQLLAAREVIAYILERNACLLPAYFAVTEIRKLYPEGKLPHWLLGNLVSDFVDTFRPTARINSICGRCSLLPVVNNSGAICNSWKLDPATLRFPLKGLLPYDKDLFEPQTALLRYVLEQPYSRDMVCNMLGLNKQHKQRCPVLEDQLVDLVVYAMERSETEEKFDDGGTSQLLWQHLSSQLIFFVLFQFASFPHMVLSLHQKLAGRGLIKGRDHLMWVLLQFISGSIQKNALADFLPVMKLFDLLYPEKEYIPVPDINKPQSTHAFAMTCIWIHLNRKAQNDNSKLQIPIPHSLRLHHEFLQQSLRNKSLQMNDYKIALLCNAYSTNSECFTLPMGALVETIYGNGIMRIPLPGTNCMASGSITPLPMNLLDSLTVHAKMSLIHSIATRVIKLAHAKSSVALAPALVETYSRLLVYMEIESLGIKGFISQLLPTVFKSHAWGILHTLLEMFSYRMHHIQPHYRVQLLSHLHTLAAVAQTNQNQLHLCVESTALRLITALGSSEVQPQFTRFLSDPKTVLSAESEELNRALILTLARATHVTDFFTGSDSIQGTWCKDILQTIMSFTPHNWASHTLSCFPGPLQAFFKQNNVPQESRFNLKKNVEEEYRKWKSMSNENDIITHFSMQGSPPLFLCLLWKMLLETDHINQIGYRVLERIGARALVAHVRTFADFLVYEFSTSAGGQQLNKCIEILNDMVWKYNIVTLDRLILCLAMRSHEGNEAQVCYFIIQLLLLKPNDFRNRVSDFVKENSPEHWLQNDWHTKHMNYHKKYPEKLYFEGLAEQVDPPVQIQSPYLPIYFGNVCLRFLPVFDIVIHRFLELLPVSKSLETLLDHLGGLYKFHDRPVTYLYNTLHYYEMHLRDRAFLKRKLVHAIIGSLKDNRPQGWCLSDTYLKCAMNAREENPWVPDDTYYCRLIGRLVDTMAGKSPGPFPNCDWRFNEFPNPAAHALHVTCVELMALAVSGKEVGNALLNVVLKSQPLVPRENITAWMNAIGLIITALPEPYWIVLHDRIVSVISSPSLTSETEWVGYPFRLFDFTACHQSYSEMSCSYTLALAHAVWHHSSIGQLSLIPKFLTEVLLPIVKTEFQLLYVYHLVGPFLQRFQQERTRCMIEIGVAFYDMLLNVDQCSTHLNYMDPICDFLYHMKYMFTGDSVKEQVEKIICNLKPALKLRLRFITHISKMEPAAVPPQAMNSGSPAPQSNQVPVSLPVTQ
Briefly: Binding affinity to Sur2.

A short description of data set [8]: Protein binding in plasma. The format is ADME, cell-free. Conditions: read-out: PPB (converted).
The test system of a further data set is HCT-116. Briefly: Antitumor activity against human HCT116 cells xenografted in athymic mouse assessed as reduction tumor size at 20 mg/kg, qd. Format: functional. Also on record: scale not given: the % may be the effect or the level left.
The next data set has as its target Mu-type opioid receptor (Homo sapiens, UniProt P35372). Briefly: Antagonist activity at MOR. The format is functional.
Data set [9] addresses Delta-type opioid receptor (Homo sapiens, UniProt P41143). Nature of the data set: Antagonist activity at DOR. Format: functional.
Data set [10] is described as follows: Drug elimination in po dosed human assessed as unchanged compound level. The format is ADME, organism-based. Conditions: in vivo, read-out: Drug excretion.
Data set [11] can be described thus: Ratio of drug level in liver to blood in human. Format: ADME, tissue-based.
Data set [12] in a line: Solubility in water. Format: physicochemical.
Data set [13] in a line: Half life in human plasma. Format: ADME, cell-free.
Data set [14] concerns Mycobacterium tuberculosis. Nature of the data set: Antimicrobial activity against Mycobacterium tuberculosis H37Rv. Format: functional.
Data set [15] in a line: Volume of distribution in mouse. Format: ADME, organism-based. Conditions: in vivo.

pIC50, pKd, pKi: −log10 of the molar value. In brackets after ≈: the same amount, converted by molar mass.

Mu-type opioid receptor, sequence (P35372 whole entry): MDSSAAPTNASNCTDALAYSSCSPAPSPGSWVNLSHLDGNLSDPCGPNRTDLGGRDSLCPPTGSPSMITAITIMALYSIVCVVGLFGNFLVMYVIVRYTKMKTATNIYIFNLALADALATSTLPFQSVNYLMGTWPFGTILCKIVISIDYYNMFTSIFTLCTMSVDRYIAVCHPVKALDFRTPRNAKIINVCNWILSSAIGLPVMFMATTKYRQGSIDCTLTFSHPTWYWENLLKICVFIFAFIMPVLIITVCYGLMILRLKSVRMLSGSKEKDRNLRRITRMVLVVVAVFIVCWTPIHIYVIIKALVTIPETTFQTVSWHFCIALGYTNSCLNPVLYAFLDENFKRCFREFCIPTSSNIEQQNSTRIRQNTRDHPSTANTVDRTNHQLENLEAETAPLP
Delta-type opioid receptor, sequence (P41143 whole entry): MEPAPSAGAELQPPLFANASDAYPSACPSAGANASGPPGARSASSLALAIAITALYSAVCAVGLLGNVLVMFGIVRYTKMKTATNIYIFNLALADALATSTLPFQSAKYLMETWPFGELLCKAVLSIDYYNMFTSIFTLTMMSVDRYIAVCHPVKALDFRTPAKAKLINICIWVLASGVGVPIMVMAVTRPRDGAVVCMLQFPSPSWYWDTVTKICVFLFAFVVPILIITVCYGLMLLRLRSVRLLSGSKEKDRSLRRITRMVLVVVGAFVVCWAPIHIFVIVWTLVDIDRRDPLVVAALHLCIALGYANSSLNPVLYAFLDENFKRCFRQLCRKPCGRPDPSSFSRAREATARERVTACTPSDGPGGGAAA

As for `NS(=O)(=O)c1nnc(NC(=O)NC23CC4CC(CC(C4)C2)C3)s1`, the Activity with Mus musculus was 47%. For the same compound, on Carbonic anhydrase 2, the pKi is 7.89.
As for `C=C1[C@H](O)CC(=C/C=C2\CCC[C@]3(C)[C@@H]([C@H](C)/C=C/C[C@H](O)CC45CC6CC(CC(C6)C4)C5)CC[C@@H]23)C[C@H]1O`, the pIC50 at Vitamin D3 receptor is 8.52.
Take `CC(C)NCC(O)COc1ccc(CC(=O)OCCC23CC4CC(CC(C4)C2)C3)cc1` (stereo not drawn) [ADAPROLOL]: the half-life in [1] was 6.9 min.
Regarding `COc1cccc(OC)c1-c1cc(C(=O)NC2(C(=O)O)C3CC4CC(C3)CC2C4)nn1-c1ccnc2cc(Cl)ccc12` (stereo not drawn) [REMINERTANT], the pIC50 in data set [2] is 9.00.
`O=C(CCCCCN1C[C@H](O)[C@@H](O)[C@H](O)[C@H]1CO)NC12CC3CC(CC(C3)C1)C2`: the INH in [3] and in [4] was over 1 µM each time.
In the case of `C[C@@]1(CCC(=O)Nc2c(O)ccc(C(=O)O)c2O)C(=O)C=CC23CC4CC(CC(C4)C21)C3` (stereo partly drawn), the MIC against Enterococcus faecium and against Staphylococcus aureus was 1.3 µg/mL (≈ 2.96 µM) each time.
For the compound `NS(=O)(=O)c1nnc(NC(=O)OC23CC4CC(CC(C4)C2)C3)s1`, the Activity with Mus musculus was 92%. This compound showed a pKi at Carbonic anhydrase 2 of 8.00.
With `NC12CC3CC(CC(C3)C1)C2` [AMANTADINE], in data set [5], the dose excreted is 65%.
Turning to `CCCCCCCCCCCCC/C=C/C(O)C(CO[C@@H]1O[C@H](CO)[C@@H](O[C@@H]2O[C@H](CO)[C@H](O[C@H]3O[C@H](CO)[C@H](O)[C@H](O)[C@H]3O)[C@H](O)[C@H]2O)[C@H](O)[C@H]1O)NC(=O)CC12CC3CC(CC(C3)C1)C2` (stereo partly drawn), the pIC50 in data set [6] was 5.00.
Take `NS(=O)(=O)c1nnc(NC(=O)CC23CC4CC(CC(C4)C2)C3)s1`: in the data set on Mus musculus, the Activity was 75%.
As for `Cc1ccc(S(=O)(=O)n2ccc3c(OCC(O)CN(CCCCCN)C(=O)N4CCC(C5CCN(C(=O)C67CC8CC(CC(C8)C6)C7)CC5)CC4)cccc32)cc1` (stereo not drawn) [WRENCHNOLOL], in data set [7], the pKd was 5.74.
`N#C[C@@H]1C[C@@H]2C[C@@H]2N1C(=O)[C@@H](N)C12CC3CC(CC(O)(C3)C1)C2` [SAXAGLIPTIN ANHYDROUS]: in data set [8], the fraction unbound was 0.7.
Consider `COC(=O)c1ccc(O)c(NC(=O)COc2ccc(C34CC5CC(CC(C5)C3)C4)cc2)c1`, for which the Activity with HCT-116 amounted to 53%.
In the case of `CC12C[C@@]34C=CC(=O)[C@@](C)(CCC(=O)Nc5c(O)ccc(C(=O)O)c5O)C3[C@H](CC1C4)O2` (stereo partly drawn) [PLATENSIMYCIN], the MIC against Enterococcus faecium and in the data set on Staphylococcus aureus was 0.2 µg/mL (≈ 0.453 µM) in each case.
As for `Cc1cc(O)cc(C)c1C[C@H](N)C(=O)N1Cc2ccccc2C[C@H]1C(=O)NC12C[C@H]3C[C@@H](C1)C[C@@H](C2)C3`, the figures for the pKi (at Mu-type opioid receptor; in data set [9]) were 7.07 and 8.91, respectively.
Turning to `CN(C)CCOCC(=O)NC12CC3CC(CC(C3)C1)C2` [TROMANTADINE], the dose excreted in data set [10] is 30%. For the same compound, the Kp in data set [11] amounted to 19.
The compound `CC(=O)N(O)CCCCCNC(=O)CCC(=O)N(O)CCCCCNC(=O)CCC(=O)N(O)CCCCCN` [DEFEROXAMINE] showed a half-life in [1] of 5 min.
Regarding `O=C(O)CCCCCCCCCCCNC(=O)NC12CC3CC(CC(C3)C1)C2`, the concentration in solution in [12] (solubility) came to 19 µg/mL (≈ 48.4 µM).
In [13], `CC(N)C12CC3CC(CC(C3)C1)C2` (stereo not drawn) [RIMANTADINE] showed a half-life of 1440 min.
As to `CC(C)=CCC/C(C)=C/CNCCNC1C2CC3CC(C2)CC1C3` (stereo not drawn) [SQ109], it took 1.56 µM (≈ 0.516 µg/mL) to inhibit growth in data set [14] (MIC). Further, in data set [15], the distribution volume (Vd) amounted to 11.8 L/kg.
